Results published in patent US20140039044A1, “Hydroxylated Polymethoxyflavone Compositions” (WLLGEN, INC., priority 2006, published 2014).

Key:
Format in all cases: cell-based, human
[1] = system: HL-60 cells; test: Cell cycle distribution by flow cytometry; conditions: 24 h, Table 10
Procedure, shortened: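 HL-60 cells were treated for 24 h with compound at 5, 10, 25, 50 or 100 μM, or with DMSO. Cells were then ethanol-fixed, treated with Triton X-100/RNase and stained with propidium iodide. DNA content was measured by flow cytometry to give cell-cycle phase distribution.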

[2] = system: HT-29 cells; test: Apoptotic ratio by propidium iodide flow cytometry (AC50); conditions: Homo sapiens, read-out: Apoptosis-inducing AC50
Procedure, shortened: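 HT-29 cells (2×10^5) were treated with compound for 24 h, then fixed in ice-cold ethanol overnight and treated with Triton X-100/RNase at 37 °C for 30 min. They were stained with propidium iodide (50 μg/mL solution) on ice for 30 min. The apoptotic fraction was measured from PI-DNA fluorescence by flow cytometry, and AC50 was reported.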

[3] = system: HT-29 cells; test: Cell cycle distribution by flow cytometry; conditions: for Cell Cycle Distribution G0/G1 / Cell Cycle Distribution G2/M / Cell Cycle Distribution S: 24 h
Procedure, shortened: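 Cells were treated 24 h with compound at 5, 10, 25, 50 or 100 μM, or with DMSO. They were then ethanol-fixed, RNase-treated and stained with propidium iodide. DNA content was measured by FACScan flow cytometry to give cell-cycle phase distribution.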

[4] = system: AGS cells; test: Cell cycle distribution by flow cytometry; conditions: 24 h, Table 11
Procedure, shortened: (§1)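 Human cancer cells (2×10^5 per dish) exposed 24 h to compound at 5–100 μM, or DMSO. Cells ethanol-fixed at −20° C overnight, RNase/Triton-treated at 37° C for 30 min, then stained with propidium iodide. DNA content read by FACScan flow cytometry to give phase distribution.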

[5] = system: COLO205 cells; test: Cell cycle distribution by flow cytometry; conditions: 24 h; for Cell Cycle Distribution G0/G1 / Cell Cycle Distribution G2/M / Cell Cycle Distribution S: COLO205 cells, Table 12
Procedure, shortened: as §1

For COc1ccc(-c2cc(=O)c3c(OC)c(OC)c(OC)c(OC)c3o2)cc1O [I, 3′-hydroxy-5,6,7,8,4′-pentamethoxyflavone], the “Cell Cycle Distribution G0/G1” value ([1]; 5 μM) was 44.51 ± 2.37, the “Cell Cycle Distribution G2/M” value ([1]; 5 μM) was 9.23 ± 0.16 and the “Cell Cycle Distribution S” value ([1]; 5 μM) was 46.27 ± 2.21. The “Cell Cycle Distribution G0/G1” value ([1]; 10 μM) was 43.22 ± 1.85, the “Cell Cycle Distribution G2/M” value ([1]; 10 μM) was 11.92 ± 0.64 and the “Cell Cycle Distribution S” value ([1]; 10 μM) was 44.86 ± 2.49. For the same compound, the “Cell Cycle Distribution G0/G1” value ([1]; 25 μM) was 50.55 ± 0.97, the “Cell Cycle Distribution G2/M” value ([1]; 25 μM) was 10.75 ± 0.41 and the “Cell Cycle Distribution S” value ([1]; 25 μM) was 38.71 ± 1.38. For the same compound, the “Cell Cycle Distribution G0/G1” value ([1]; 50 μM) was 50.23 ± 1.94, the “Cell Cycle Distribution G2/M” value ([1]; 50 μM) was 6.36 ± 1.69 and the “Cell Cycle Distribution S” value ([1]; 50 μM) was 43.41 ± 3.62. For the same compound, the “Cell Cycle Distribution G0/G1” value ([1]; 100 μM) was 65.54 ± 4.07, the “Cell Cycle Distribution G2/M” value ([1]; 100 μM) was 13.24 ± 11.61 and the “Cell Cycle Distribution S” value ([1]; 100 μM) was 21.31 ± 15.55. The AC50 [2] was over 100 µM, the “Cell Cycle Distribution G0/G1” value ([3]; 5 μM) was 60.78 ± 1.52 and the “Cell Cycle Distribution G2/M” value ([3]; 5 μM) was 7.95 ± 0.71. For the same compound, the “Cell Cycle Distribution S” value ([3]; 5 μM) was 31.28 ± 0.81, the “Cell Cycle Distribution G0/G1” value ([3]; 10 μM) was 61.09 ± 1.06 and the “Cell Cycle Distribution G2/M” value ([3]; 10 μM) was 7.89 ± 0.23. For the same compound, the “Cell Cycle Distribution S” value ([3]; 10 μM) was 31.02 ± 1.30, the “Cell Cycle Distribution G0/G1” value ([3]; 25 μM) was 60.90 ± 0.87 and the “Cell Cycle Distribution G2/M” value ([3]; 25 μM) was 7.48 ± 0.64. For the same compound, the “Cell Cycle Distribution S” value ([3]; 25 μM) was 31.63 ± 0.23, the “Cell Cycle Distribution G0/G1” value ([3]; 50 μM) was 66.36 ± 0.88 and the “Cell Cycle Distribution G2/M” value ([3]; 50 μM) was 9.83 ± 0.61. The “Cell Cycle Distribution S” value ([3]; 50 μM) was 23.81 ± 0.28, the “Cell Cycle Distribution G0/G1” value ([3]; 100 μM) was 74.18 ± 2.33 and the “Cell Cycle Distribution G2/M” value ([3]; 100 μM) was 0.37 ± 0.40. For the same compound, the “Cell Cycle Distribution S” value ([3]; 100 μM) was 25.45 ± 2.72, the “Cell cycle arrest, in words” value ([3]; 5-100 μM, 24 h exposure) was “significant accumulation of cells in G1 phase” and the “Cell Cycle Distribution G0/G1” value ([4]; 5 μM) was 57.25 ± 0.28. For the same compound, the “Cell Cycle Distribution G2/M” value ([4]; 5 μM) was 16.01 ± 0.21, the “Cell Cycle Distribution S” value ([4]; 5 μM) was 26.74 ± 0.49 and the “Cell Cycle Distribution G0/G1” value ([4]; 10 μM) was 58.27 ± 0.96. The “Cell Cycle Distribution G2/M” value ([4]; 10 μM) was 17.94 ± 1.07, the “Cell Cycle Distribution S” value ([4]; 10 μM) was 23.79 ± 2.03 and the “Cell Cycle Distribution G0/G1” value ([4]; 25 μM) was 49.07 ± 1.22. The “Cell Cycle Distribution G2/M” value ([4]; 25 μM) was 16.15 ± 0.69, the “Cell Cycle Distribution S” value ([4]; 25 μM) was 34.79 ± 1.90 and the “Cell Cycle Distribution G0/G1” value ([4]; 50 μM) was 62.72 ± 1.27. For the same compound, the “Cell Cycle Distribution G2/M” value ([4]; 50 μM) was 0.59 ± 0.74, the “Cell Cycle Distribution S” value ([4]; 50 μM) was 36.70 ± 2.00 and the “Cell Cycle Distribution G0/G1” value ([4]; 100 μM) was 69.35 ± 0.70. The “Cell Cycle Distribution G2/M” value ([4]; 100 μM) was 12.65 ± 0.84, the “Cell Cycle Distribution S” value ([4]; 100 μM) was 18.01 ± 0.14 and the “Cell Cycle Distribution G0/G1” value ([5]; 5 μM) was 64.51 ± 1.26. The “Cell Cycle Distribution G2/M” value ([5]; 5 μM) was 6.46 ± 0.35, the “Cell Cycle Distribution S” value ([5]; 5 μM) was 29.03 ± 1.61 and the “Cell Cycle Distribution G0/G1” value ([5]; 10 μM) was 64.14 ± 1.71. For the same compound, the “Cell Cycle Distribution G2/M” value ([5]; 10 μM) was 5.54 ± 0.41, the “Cell Cycle Distribution S” value ([5]; 10 μM) was 30.32 ± 1.30 and the “Cell Cycle Distribution G0/G1” value ([5]; 25 μM) was 67.09 ± 0.57. The “Cell Cycle Distribution G2/M” value ([5]; 25 μM) was 5.43 ± 1.17, the “Cell Cycle Distribution S” value ([5]; 25 μM) was 27.48 ± 0.62 and the “Cell Cycle Distribution G0/G1” value ([5]; 50 μM) was 68.03 ± 1.51. The “Cell Cycle Distribution G2/M” value ([5]; 50 μM) was 4.83 ± 1.48, the “Cell Cycle Distribution S” value ([5]; 50 μM) was 27.15 ± 0.04 and the “Cell Cycle Distribution G0/G1” value ([5]; 100 μM) was 83.31 ± 1.06. The “Cell Cycle Distribution G2/M” value ([5]; 100 μM) was 0.02 ± 0.02, the “Cell Cycle Distribution S” value ([5]; 100 μM) was 16.68 ± 1.04 and the “Cell cycle arrest, in words” value ([5]; COLO 205 cells, compound A 50 μM, compound I 100 μM) was “trends in G1 arrest”.
With COc1ccc(-c2cc(=O)c3c(O)c(OC)c(OC)c(OC)c3o2)cc1OC [J, 5-hydroxy-6,7,8,3′,4′-pentamethoxyflavone] the “Cell Cycle Distribution G0/G1” value ([1]; 5 μM) was 53.10 ± 0.46, the “Cell Cycle Distribution G2/M” value ([1]; 5 μM) was 7.94 ± 0.06 and the “Cell Cycle Distribution S” value ([1]; 5 μM) was 38.96 ± 0.51. For the same compound, the “Cell Cycle Distribution G0/G1” value ([1]; 10 μM) was 51.74 ± 1.57, the “Cell Cycle Distribution G2/M” value ([1]; 10 μM) was 9.06 ± 0.54 and the “Cell Cycle Distribution S” value ([1]; 10 μM) was 39.20 ± 2.10. The “Cell Cycle Distribution G0/G1” value ([1]; 25 μM) was 51.30 ± 1.68, the “Cell Cycle Distribution G2/M” value ([1]; 25 μM) was 8.20 ± 1.19 and the “Cell Cycle Distribution S” value ([1]; 25 μM) was 40.50 ± 2.87. The “Cell Cycle Distribution G0/G1” value ([1]; 50 μM) was 49.22 ± 0.13, the “Cell Cycle Distribution G2/M” value ([1]; 50 μM) was 7.93 ± 0.36 and the “Cell Cycle Distribution S” value ([1]; 50 μM) was 42.86 ± 0.48. For the same compound, the “Cell Cycle Distribution G0/G1” value ([1]; 100 μM) was 51.29 ± 0.74, the “Cell Cycle Distribution G2/M” value ([1]; 100 μM) was 7.45 ± 0.83 and the “Cell Cycle Distribution S” value ([1]; 100 μM) was 41.27 ± 0.09. The AC50 [2] was over 100 µM, the “Cell Cycle Distribution G0/G1” value ([3]; 5 μM) was 64.81 ± 0.41 and the “Cell Cycle Distribution G2/M” value ([3]; 5 μM) was 9.52 ± 0.05. The “Cell Cycle Distribution S” value ([3]; 5 μM) was 25.68 ± 0.46, the “Cell Cycle Distribution G0/G1” value ([3]; 10 μM) was 62.87 ± 0.40 and the “Cell Cycle Distribution G2/M” value ([3]; 10 μM) was 9.02 ± 0.16. For the same compound, the “Cell Cycle Distribution S” value ([3]; 10 μM) was 28.11 ± 0.57, the “Cell Cycle Distribution G0/G1” value ([3]; 25 μM) was 62.04 ± 1.24 and the “Cell Cycle Distribution G2/M” value ([3]; 25 μM) was 8.46 ± 0.09. For the same compound, the “Cell Cycle Distribution S” value ([3]; 25 μM) was 29.51 ± 1.15, the “Cell Cycle Distribution G0/G1” value ([3]; 50 μM) was 60.39 ± 0.28 and the “Cell Cycle Distribution G2/M” value ([3]; 50 μM) was 9.93 ± 0.06. For the same compound, the “Cell Cycle Distribution S” value ([3]; 50 μM) was 29.55 ± 0.52, the “Cell Cycle Distribution G0/G1” value ([3]; 100 μM) was 62.44 ± 1.00 and the “Cell Cycle Distribution G2/M” value ([3]; 100 μM) was 7.89 ± 0.69. The “Cell Cycle Distribution S” value ([3]; 100 μM) was 29.67 ± 1.68, the “Cell Cycle Distribution G0/G1” value ([4]; 5 μM) was 58.65 ± 1.77 and the “Cell Cycle Distribution G2/M” value ([4]; 5 μM) was 13.51 ± 1.20. For the same compound, the “Cell Cycle Distribution S” value ([4]; 5 μM) was 27.84 ± 0.56, the “Cell Cycle Distribution G0/G1” value ([4]; 10 μM) was 57.07 ± 1.02 and the “Cell Cycle Distribution G2/M” value ([4]; 10 μM) was 13.84 ± 0.52. For the same compound, the “Cell Cycle Distribution S” value ([4]; 10 μM) was 29.09 ± 1.54, the “Cell Cycle Distribution G0/G1” value ([4]; 25 μM) was 58.84 ± 4.84 and the “Cell Cycle Distribution G2/M” value ([4]; 25 μM) was 14.00 ± 4.20. For the same compound, the “Cell Cycle Distribution S” value ([4]; 25 μM) was 27.17 ± 0.64, the “Cell Cycle Distribution G0/G1” value ([4]; 50 μM) was 52.82 ± 3.22 and the “Cell Cycle Distribution G2/M” value ([4]; 50 μM) was 15.74 ± 0.11. For the same compound, the “Cell Cycle Distribution S” value ([4]; 50 μM) was 31.45 ± 3.31, the “Cell Cycle Distribution G0/G1” value ([4]; 100 μM) was 58.11 ± 1.11 and the “Cell Cycle Distribution G2/M” value ([4]; 100 μM) was 12.71 ± 0.25. For the same compound, the “Cell Cycle Distribution S” value ([4]; 100 μM) was 29.24 ± 1.28, the “Cell Cycle Distribution G0/G1” value ([5]; 5 μM) was 56.75 ± 1.52 and the “Cell Cycle Distribution G2/M” value ([5]; 5 μM) was 7.41 ± 0.30. For the same compound, the “Cell Cycle Distribution S” value ([5]; 5 μM) was 35.85 ± 1.22, the “Cell Cycle Distribution G0/G1” value ([5]; 10 μM) was 59.63 ± 0.88 and the “Cell Cycle Distribution G2/M” value ([5]; 10 μM) was 7.07 ± 0.86. For the same compound, the “Cell Cycle Distribution S” value ([5]; 10 μM) was 31.99 ± 1.85, the “Cell Cycle Distribution G0/G1” value ([5]; 25 μM) was 63.97 ± 0.56 and the “Cell Cycle Distribution G2/M” value ([5]; 25 μM) was 6.38 ± 1.05. For the same compound, the “Cell Cycle Distribution S” value ([5]; 25 μM) was 29.65 ± 1.61, the “Cell Cycle Distribution G0/G1” value ([5]; 50 μM) was 64.90 ± 1.44 and the “Cell Cycle Distribution G2/M” value ([5]; 50 μM) was 6.41 ± 0.13. For the same compound, the “Cell Cycle Distribution S” value ([5]; 50 μM) was 28.69 ± 1.57, the “Cell Cycle Distribution G0/G1” value ([5]; 100 μM) was 62.39 ± 2.98 and the “Cell Cycle Distribution G2/M” value ([5]; 100 μM) was 7.05 ± 0.13. The “Cell Cycle Distribution S” value ([5]; 100 μM) was 30.57 ± 2.84.
